Experimental data reported in patent US20230372529A1, “MITOCHONDRIA COMPRISING ANTICANCER DRUG AND USE THEREOF” (Paean Biotechnology Inc., priority 2020, published 2023).

Legend:
[1] = system: SK-BR-3, BT-474, MDA-MB-231, NCI-H1975, NCI-N87 and MKN-74; assay: cancer cell proliferation inhibition for each concentration, WST-1 assay (DOX series); type: cell-based, human; conditions: 0.01 to 2 μM, 144 hours, versus untreated group (NC)
Method: Specifically, the human breast cancer (SK-BR-3, BT-474 and MDA-MB-231), lung cancer (NCI-H1975) and gastric cancer (NCI-N87 and MKN-74) cell lines were inoculated into a 96-well plate at about 3×10^3 cells/well, respectively, and cultured for 24 hours. At this time, SK-BR-3, BT-474 and NCI-N87 cells were cultured in RPMI-1640 medium containing 10% FBS, and MDA-MB-231, NCI-H1975 and MKN-74 cells were cultured in DMEM medium containing 10% FBS. After culturing for 24 hours, each cell was treated with doxorubicin (DOX) or DOX_MT^α-HER2scFv at a concentration of 2 μM, 1 μM, 0.5 μM, 0.25 μM, 0.1 μM, 0.05 μM, 0.025 μM, and 0.01 μM. After 144 hours of sample treatment, cell proliferation was measured by WST-1 assay.

[2] = system: SK-BR-3, BT-474, MDA-MB-231, NCI-H1975, MKN-74 and NCI-N87; assay: proliferation inhibition at the same concentration, WST-1 assay, cancer cells (DOX series); type: cell-based; conditions: Homo sapiens, 144 hours, read-out: cell proliferation inhibitory effect compared to the untreated group, cancer cells
Method: (§1) 200 μg of MT^α-HER2scFv and 100 μM doxorubicin (DOX) were reacted in the same manner as in Preparation Example 2 above. In order to compare the influence of the obtained DOX_MT^α-HER2scFv on cell proliferation in cancer cells and normal cells, after treatment with DOX_MT^α-HER2scFv at the same concentration in the human breast cancer, lung cancer, gastric cancer cell lines and the lung fibroblast cell line, the cell proliferation inhibitory ability was measured.
(§2) Specifically, the human breast cancer (SK-BR-3, BT-474 and MDA-MB-231), lung cancer (NCI-H1975), gastric cancer (MKN-74 and NCI-N87) cell lines and the lung fibroblast cell line (CCD-8Lu and WI-38) were inoculated into a 96-well plate at about 3×10^3 cells/well, respectively, and cultured for 24 hours. At this time, SK-BR-3, BT-474 and NCI-N87 cells were cultured in RPMI-1640 medium containing 10% FBS. MDA-MB-231, NCI-H1975, MKN-74, CCD-8Lu, and WI-38 cells were cultured in DMEM medium containing 10% FBS. After culturing for 24 hours, the cells were treated with 0.5 μM doxorubicin (DOX) or DOX_MT^α-HER2scFv respectively, and after 144 hours, the cell proliferation inhibitory ability was evaluated by WST-1 assay. […] Statistical processing was performed using Graphpad 5.0 software, and p values were measured with one-way ANOVA (Turkey's) test (*p<0.05, **p<0.01, and ***p<0.001).

[3] = system: human lung fibroblast cell lines WI-38 and CCD-8Lu; assay: proliferation inhibition in normal cells for each concentration, WST-1 assay (DOX series); type: cell-based; conditions: 0.01 to 2 μM, 144 hours
Method: 200 μg of MT^α-HER2scFv and 100 μM doxorubicin (DOX) were reacted in the same manner as in Preparation Example 2 above. In order to confirm the influence of the obtained DOX_MT^α-HER2scFv on cell proliferation in normal cells, the cell proliferation inhibitory effect by treatment with DOX_MT^α-HER2scFv in human lung fibroblasts was evaluated.
Specifically, the human lung fibroblast cell lines WI-38 and CCD-8Lu were inoculated into a 96-well plate at about 3×10^3 cells/well, respectively, and cultured for 24 hours. At this time, WI-38 and CCD-8Lu were cultured in DMEM medium containing 10% FBS. After culturing for 24 hours, each cell was treated with doxorubicin (DOX) or DOX_MT^α-HER2scFv at a concentration of 2 μM, 1 μM, 0.5 μM, 0.25 μM, 0.1 μM, 0.05 μM, 0.025 μM, and 0.01 μM. After 144 hours of sample treatment, cell proliferation was measured by WST-1 assay.

[4] = system: lung fibroblast cell line (CCD-8Lu and WI-38); assay: proliferation inhibition at the same concentration, WST-1 assay, normal cells (DOX series); type: cell-based; conditions: Homo sapiens, 144 hours, read-out: cell proliferation inhibitory effect compared to the untreated group, normal cells
Method: as §1, §2

[5] = system: mouse melanoma cell line B16F10 overexpressing human HER2, allograft; assay: anticancer activity of DOX_MT^α-HER2scFv in allograft tumor animal model; type: in vivo; conditions: MT^α-HER2scFv 20 μg, DOX 4 μg, DOX_MT^α-HER2scFv 4 μg/20 μg, intravenously 3 times a week for 3 weeks
Excerpt: 7-week-old C57BL/6 female mice (Samtako Bio Korea) were acclimatized for 1 week, and then the mouse melanoma cell line B16F10 was subcutaneously transplanted into the lateral abdomen of the mice at about 5×10^5 cells/mouse to construct an allograft tumor mouse. At this time, B16F10 cells in which the human HER2 gene was overexpressed using lentivirus were used as B16F10 cells. When the average volume of the tumor reached 100˜200 mm^3, the mice were divided into 4 groups of 3 mice per test group, and MT^α-HER2scFv (20 μg), DOX (4 μg) or DOX_MT^α-HER2scFv (TPP-DOX/MT: 4 μg/20 μg) was intravenously administered 3 times a week for 3 weeks. The tumor size was measured 3 times a week, and after the end of the experiment (after 3 weeks from the start of administration), the tumor tissues of the mice were extracted, and the size and weight were measured (FIG. 73).

[6] = system: human lung fibroblast cell lines WI-38 and CCD-8Lu; assay: proliferation inhibition in normal cells for each concentration, WST-1 assay (TPP-DOX series); type: cell-based; conditions: 0.01 to 2 μM, 144 hours
Method: Specifically, the human lung fibroblast cell lines WI-38 and CCD-8Lu were inoculated into a 96-well plate at about 3×10^3 cells/well, respectively, and cultured for 24 hours. At this time, WI-38 and CCD-8Lu were cultured in DMEM medium containing 10% FBS. After culturing for 24 hours, each cell was treated with TPP-DOX or TPP-DOX_MT^α-HER2scFv at a concentration of 2 μM, 1 μM, 0.5 μM, 0.25 μM, 0.1 μM, 0.05 μM, 0.025 μM and 0.01 μM. […] At this time, the mitochondria-only treated group (MT, MT^α-HER2scFv) was used as a negative control for TPP-DOX MT^α-HER2scFv.

[7] = system: lung fibroblast cell line (CCD-8Lu and WI-38); assay: proliferation inhibition at the same concentration, WST-1 assay, normal cells (TPP-DOX series); type: cell-based, human; conditions: 0.5 μM, 144 hours
Method: At this time, the mitochondria-only treated group (MT^α-HER2scFv) was used as a negative control for TPP-DOX_MT^α-HER2scFv. Statistical processing was performed using Graphpad 5.0 software, and p values were measured with one-way ANOVA (Turkey's) test (*p<0.05, **p<0.01 and ***p<0.001).

[8] = system: HER2^+ human gastric cancer cell line NCI-N87 xenograft; assay: anticancer activity in NCI-N87 xenograft tumor mouse model; type: in vivo; conditions: 4 μg intravenously
Method: 5-week-old BALB/c male nude mice (initial body weight of 18˜20 g) (Nara Biotech) were acclimatized for 1 week, and then HER2^+ human gastric cancer cell line NCI-N87 was subcutaneously transplanted into the lateral abdomen at 1×10^7 cells/mouse to construct a xenograft tumor model mouse. […] The tumor size was measured at an interval of 2˜4 days, and after 25 days from the start of administration, the tumor tissues were extracted, and the size and weight were measured (FIG. 65).

[9] = system: SK-BR-3, BT-474, MDA-MB-231, NCI-H1975, NCI-N87 and MKN-74; assay: cancer cell proliferation inhibition for each concentration, WST-1 assay (TPP-DOX series); type: cell-based, human; conditions: 0.01 to 2 μM, 144 hours, versus untreated group (NC)
Method: After culturing for 24 hours, each cell was treated with TPP-DOX or TPP-DOX_MT^α-HER2scFv at a concentration of 2 μM, 1 μM, 0.5 μM, 0.25 μM, 0.1 μM, 0.05 μM, 0.025 μM and 0.01 μM. […] At this time, the mitochondria-only treated group (MT, MT^α-HER2scFv) was used as a negative control for TPP-DOX MT^α-HER2scFv.

[10] = system: mouse melanoma cell line B16F10 overexpressing human HER2, allograft; assay: anticancer activity of TPP-DOX_MT^α-HER2scFv in allograft tumor mouse model; type: in vivo; conditions: MT^α-HER2scFv 20 μg, TPP-DOX 5 μg, TPP-DOX/MT 5 μg/20 μg, intravenously 3 times a week for 3 weeks
Method: 7-week-old C57BL/6 female mice (Samtako Bio Korea) were acclimatized for 1 week, and then the mouse melanoma cell line B16F10 was subcutaneously transplanted into the lateral abdomen of the mice at about 5×10^5 cells/mouse to construct an allograft tumor mouse. […] When the average volume of the tumor reached 100˜200 mm^3, the mice were divided into 4 groups of 3 mice per test group, and MT^α-HER2scFv (20 μg), TPP-DOX (5 μg) or TPP-DOX_MT^α-HER2scFv (TPP-DOX/MT: 5 μg/20 μg) was intravenously administered 3 times a week for 3 weeks. The tumor size was measured 3 times a week, and after the end of the experiment (after 3 weeks from the start of administration), the tumor tissues of the mice were extracted, and the size and weight were measured (FIG. 69).

PDL1 = molecular target: T1, PDL1 (human, UniProt Q9NZQ7 19-290); assay: confocal microscopy, MitoTracker Red-stained scFv-fused mitochondria on co-cultured BXPC-3 (PDL1+) and CFPAC-1 (PDL1-) cells
T1 construct: whole, on cells; also called PDL1 antigen
Method: Mitochondria to be used as samples were prepared by treating untreated HEK293 cells (MT) and HEK293 cells comprising mitochondria fused with an anti-PDL1scFv antibody (MT^{α-PDL1scFv}) with MitoTracker Red to stain the mitochondria, and then isolating the mitochondria. After co-culture for 24 hours, each isolated mitochondrion was treated with the co-cultured cells and reacted for 24 hours (FIG. 47).
The cells treated in the same manner as in Example 4 above were washed once with PBS, and fixed by adding 3.7% formaldehyde at room temperature for 30 minutes, and then immunocytochemistry staining was performed. At this time, an anti-PDL1 antibody (Cell signaling, 86744) was used as a primary antibody, and Alexa Fluor 488 goat anti-rabbit IgG (H+L) was used as a secondary antibody. The nuclei of the cells were observed by staining with DAPI.

T1 sequence (Q9NZQ7 19-290): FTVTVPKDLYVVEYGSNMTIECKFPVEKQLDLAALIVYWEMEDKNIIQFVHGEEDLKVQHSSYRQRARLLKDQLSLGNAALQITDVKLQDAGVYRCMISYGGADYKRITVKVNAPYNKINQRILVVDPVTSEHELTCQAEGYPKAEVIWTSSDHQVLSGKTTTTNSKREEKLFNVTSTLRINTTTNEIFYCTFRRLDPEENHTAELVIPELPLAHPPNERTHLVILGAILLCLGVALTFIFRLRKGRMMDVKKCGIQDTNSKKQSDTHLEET

## COc1cccc2c1C(=O)c1c(O)c3c(c(O)c1C2=O)C[C@@](O)(C(=O)CO)C[C@@H]3O[C@H]1C[C@H](N)[C@H](O)[C@H](C)O1 [DOX, doxorubicin]
[1]
  cell proliferation inhibitory effect: inhibited in a concentration-dependent manner
[2]
  inhibition at 0.5 µM: 50 to 80%
[3]
  cell proliferation inhibitory ability in normal cells: weaker than that of cancer cells
[4]
  inhibition at 0.5 µM: ≤ 25%
[5]
  tumor size compared to the control group (CTR): significantly reduced

## triphenylphosphonium (TPP)-doxorubicin [TPP-DOX]
[6]
  cell proliferation inhibitory ability in normal cells: weaker than that of cancer cells
[7]
  proliferation inhibitory ability, normal cells: weak
[8]
  tumor size by date compared to the control group (CTR): similar
[9]
  cell proliferation inhibitory effect: inhibited in a concentration-dependent manner
[10]
  tumor size compared to the control group (CTR): similar

B1: anti-PDL1scFv antibody fused to the mitochondrial outer membrane (scFvPDL1-myc-TOM7) (scFv)
scFv: MDIVMSQSPSSLAVSAGEKVTMSCKSSQSLLNSRTRKNYLAWYQQKPGQSPKLLIYWASTRESGVPDRFTGSGSGTDFTLTISSVQAEDLAVYYCQQSYDVVTFGAGTKLELKGGGGSGGGGSGGGGSQVQVQQSGAELAEPGASVKMSCKASGYIFTSYWMHWLKQRPGQGLEWIGYINPSSDYNEYSEKFMDKATLTADKASTTAYMQLISLTSEDSAVYYCARSGWLVHGDYYFDYWGQGTTLTVSSEQKLISEEDLVKLSKEAKQRLQQLFKGSQFAIRWGFIPLVIYLGFKRGADPGMPEPTVLSLLWG
notes: In the assay the fusion protein was anchored on the outer membrane of mitochondria isolated from HEK293 cells (MT^α-PDL1scFv); also called MT^α-PDL1scFv; single chain variable region fragment of an anti-PDL1 antibody
PDL1
  binding result: binds
